These results are taken from ChEMBL document CHEMBL1201862, “PubChem BioAssay data set” (2004).

Each structure is given as a SMILES string.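 In this assay, cells in 96-well plates receive the compound at five concentrations for 48 hours. Endpoints are linearly interpolated between the surrounding concentrations. GI50 is the concentration that inhibits growth by half.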 The source made the active and inactive calls. Rule as the data show it: active = GI50 up to about 1.1 µM and inactive = higher.

Assay in all cases: growth of human tumour cells (NCI), 48 h
Test [1] has as its system SNB-75.
Test [2] deals with EKVX.
In test [3] the test system is Malme-3M.
For test [4], the system named is SR.
The subject of test [5] is HCC 2998.
For test [6], the system named is RPMI-8226.
Test [7] relates to OVCAR-5.
Test [8] has as its system UACC-62.
The test system of test [9] is HCT-15.
For test [10], the system named is M19-MEL.
The test system of test [11] is NCI-H23.
For test [12], the system named is NCI-H460.
The subject of test [13] is OVCAR-8.
For test [14], the system named is SF-539.
For test [15], the system named is NCI-H226.
Test [16] has as its system SK-MEL-2.
The test system of test [17] is HOP-92.

As for `O=C(O)CCC(=O)Oc1ccc(O)c2c1CCCC2=O`, the GI50 in [1] is 55.7 µM (inactive); in test [2], 58.5 µM (inactive); in test [3], > 100 µM (inactive); in test [4], 64 µM (inactive); in test [5] it was > 100 µM (inactive); in test [6] it was 95.5 µM (inactive). The GI50 in test [7] is > 100 µM (inactive); in [8], 69.7 µM (inactive); in test [9] it was greater than 100 µM; in test [10], > 100 µM (inactive); in [11] it was > 100 µM (inactive); in [12], > 100 µM (inactive). Further, the GI50 in test [13], in [14], in test [15] and in test [16] was > 100 µM (inactive) throughout.
`O=c1[nH]c(=O)n([C@H]2C[C@@H](CO)[C@@H](O)C2)cc1I`: the GI50 was 91.6 µM (inactive) in test [1]; > 100 µM (inactive) in test [2]; > 100 µM (inactive) in test [3]; > 100 µM (inactive) in test [5]; > 100 µM (inactive) in test [17]; > 100 µM (inactive) in test [6]. Further, the GI50 was > 100 µM (inactive) in [7]; > 100 µM (inactive) in test [8]; greater than 100 µM in test [9]; > 100 µM (inactive) in [10]; > 100 µM (inactive) in test [11]; > 100 µM (inactive) in [12]. Besides, the GI50 in test [13], in test [14], in [15] and in test [16] was > 100 µM (inactive) throughout.
With `Cc1ccc(Nc2nc3c(s2)C(=O)c2ccccc2C3=O)c(C)c1`, the GI50 was 15.8 µM (inactive) in test [1]; 18.3 µM (inactive) in [2]; 13.6 µM (inactive) in test [3]; 17.2 µM (inactive) in test [5]; 9.48 µM (inactive) in test [17]; 12.1 µM (inactive) in test [6]. For the same molecule, the GI50 is 19.8 µM (inactive) in test [7]; 13.8 µM (inactive) in [8]; 17.5 µM in test [9]; 2.37 µM (inactive) in test [10]; 10.1 µM (inactive) in test [11]; 22.2 µM (inactive) in test [12]. In addition, the GI50 in test [13] is 15.7 µM (inactive); in [14] it was 17.5 µM (inactive); in test [15] it was 12.1 µM (inactive); in test [16], 13.7 µM (inactive).
Consider `O=C1NCC2=C1CCC1c3ccccc3CCN21` (configuration not stated), for which the GI50 in [1], in test [2], in test [3], in test [4], in test [5] and in test [17] was > 100 µM (inactive) in each case. Besides, the GI50 in test [7] is > 100 µM (inactive); in test [8] it was > 100 µM (inactive); in test [9] it was greater than 100 µM; in test [10], > 100 µM (inactive); in [11], > 100 µM (inactive); in test [12] it was > 100 µM (inactive). Also, the GI50 in [13], in test [14], in test [15] and in [16] was > 100 µM (inactive) throughout.
Regarding `O=C(NCCCCCCNC(=O)OCCSCCn1cc(C(=O)NC(=O)OCc2ccccc2)c(=O)[nH]c1=O)OCCSCCn1cc(C(=O)NC(=O)OCc2ccccc2)c(=O)[nH]c1=O`, the GI50 in [2] is > 100 µM (inactive); in test [3], > 100 µM (inactive); in test [5] it was > 100 µM (inactive); in test [17], 32.1 µM (inactive); in test [6], > 100 µM (inactive); in test [7] it was > 100 µM (inactive). Moreover, the GI50 in [8] was > 100 µM (inactive); in test [9] it was greater than 100 µM; in test [10], > 100 µM (inactive); in test [11], > 100 µM (inactive); in test [12], > 100 µM (inactive); in [13] it was > 100 µM (inactive). In addition, the GI50 in test [15] and in test [16] was > 100 µM (inactive) throughout.
As to `COc1ccc2nc3ccccc3c(NCCCCCCN(C)CCCl)c2c1`, the GI50 in [1] is 0.703 µM (active); in test [2], 1.39 µM (inactive); in test [3] it was 0.82 µM (active); in test [5], 0.705 µM (active); in [17], 0.158 µM (active); in [6], 0.0728 µM (active). Besides, the GI50 is 1.11 µM (active) in test [7]; 0.307 µM (active) in test [8]; 0.221 µM in test [9]; 0.308 µM (active) in test [10]; 0.175 µM (active) in test [11]; 0.0569 µM (active) in test [12]. For the same molecule, the GI50 in test [13] is 0.296 µM (active); in test [14] it was 0.474 µM (active); in test [15] it was 0.104 µM (active); in test [16] it was 0.293 µM (active).
In the case of `COc1ccc2c(c1)Oc1cc(O)ccc1[C@H]2c1ccccc1C(=O)NC(C)c1ccccc1` (some centres not stated), the GI50 in [1] is 16.4 µM (inactive); in test [2], 16.5 µM (inactive); in test [3] it was 20.4 µM (inactive); in test [5], 12.8 µM (inactive); in test [6], 4.66 µM (inactive); in test [7], 15.3 µM (inactive). The GI50 in test [8] was 12.1 µM (inactive); in test [9], 14.6 µM; in test [10] it was 15.7 µM (inactive); in test [11] it was 15.5 µM (inactive); in test [12] it was 13.3 µM (inactive); in [13], 16 µM (inactive). Moreover, the GI50 in [14] is 16.1 µM (inactive); in [15] it was 20.7 µM (inactive); in [16], 21.5 µM (inactive).
For `Cc1cccc(NC(=O)/C(=N\N)C(c2cnc3ccc([N+](=O)[O-])cc3n2)[N+](=O)[O-])c1C` (configuration not stated), the GI50 in [1], in test [2], in [3], in test [4], in test [5] and in [17] was > 100 µM (inactive) throughout. For the same molecule, the GI50 in [8] is 66.2 µM (inactive); in [9], 53.8 µM; in [10], > 100 µM (inactive); in test [11], > 100 µM (inactive); in [12], > 100 µM (inactive); in test [13], > 100 µM (inactive). Further, the GI50 in test [14], in test [15] and in test [16] was > 100 µM (inactive) each time.
Regarding `Cc1ccc(-n2nc(C(OC3OC(CO)C(O)C(O)C3O)C(O)CO)c3nc4cc(C)c(C)cc4nc32)cc1` (configuration not stated), the GI50 in test [1] is 34 µM (inactive); in test [2] it was > 100 µM (inactive); in test [3], > 100 µM (inactive); in [5], > 100 µM (inactive); in test [6], > 100 µM (inactive); in test [7], > 100 µM (inactive). The GI50 was > 100 µM (inactive) in test [8]; greater than 100 µM in [9]; > 100 µM (inactive) in [10]; > 100 µM (inactive) in test [11]; > 100 µM (inactive) in [12]; > 100 µM (inactive) in [13]. Moreover, in test [14], the GI50 is > 100 µM (inactive).
As to `COc1ccc2nc(-c3ccc(O)cc3)ccc2c1`, the GI50 was 59.7 µM (inactive) in test [1]; 95.5 µM (inactive) in [2]; > 100 µM (inactive) in [3]; > 100 µM (inactive) in [4]; 10.4 µM (inactive) in [5]; > 100 µM (inactive) in test [17]. Besides, the GI50 in test [6], in test [7], in [8], in [10], in test [11] and in [12] was > 100 µM (inactive) in each case. For the same molecule, the GI50 in [13], in test [14] and in [15] was > 100 µM (inactive) each time.
Regarding `COC(=O)C1=NC(=S)NC(c2ccccc2)C1c1nc2ccccc2s1` (configuration not stated), the GI50 is 55.3 µM (inactive) in test [1]; > 100 µM (inactive) in test [2]; > 100 µM (inactive) in test [3]; > 100 µM (inactive) in test [4]; > 100 µM (inactive) in test [5]; > 100 µM (inactive) in test [17]. Besides, the GI50 is > 100 µM (inactive) in test [8]; greater than 100 µM in [9]; > 100 µM (inactive) in test [10]; > 100 µM (inactive) in test [11]; > 100 µM (inactive) in [12]; > 100 µM (inactive) in [13]. Besides, the GI50 was 67.8 µM (inactive) in test [14], > 100 µM (inactive) in test [15] and > 100 µM (inactive) in [16].
For the molecule `C[C@H]1CC[P+](Cc2ccccc2)(c2ccccc2)C1` (some centres not stated), the GI50 in test [1] was 73.6 µM (inactive); in test [2] it was 73.3 µM (inactive); in test [3], 30.3 µM (inactive); in [4], 90.4 µM (inactive); in test [5], 67.6 µM (inactive); in [6], 19.5 µM (inactive). Moreover, the GI50 in [7] is > 100 µM (inactive); in test [8] it was 76.6 µM (inactive); in test [9], greater than 100 µM; in test [10], 26.8 µM (inactive); in test [11], > 100 µM (inactive); in test [12], > 100 µM (inactive). For the same molecule, the GI50 in [13], in test [14], in test [15] and in test [16] was > 100 µM (inactive) each time.
Consider `N#CC(/C(CCC(=O)Nc1ccc(Cl)cc1)=N/NC(=O)c1cc2ccccc2cc1O)c1ccccc1` (configuration not stated), for which the GI50 in test [1] is 45 µM (inactive); in [2], 34.4 µM (inactive); in test [3], 50 µM (inactive); in test [5] it was 52.2 µM (inactive); in [17], 40.9 µM (inactive); in test [6], 14.9 µM (inactive). The GI50 in test [7] is 22.8 µM (inactive); in test [8], 25.1 µM (inactive); in [10], 33.7 µM (inactive); in [11], 39.3 µM (inactive); in test [12], 30.7 µM (inactive); in [13], 32.2 µM (inactive). The GI50 was 42.2 µM (inactive) in [15] and 19.7 µM (inactive) in test [16].
